Patent publication US20080242649A1, “New Combination 665” (priority 2007, published 2008)
Where a name gives a salt, the structure may show the parent alone.

Key:
[1] = system: histamine-induced bronchoconstriction; test: Lung function in anaesthetized guinea-pigs, histamine challenge; assay type: in vivo, Dunkin-Hartley guinea pig; details: for inhibition of histamine-induced bronchoconstriction: histamine 5 μg/kg i.v.; for increase in bronchoconstriction: histamine 5 μg/kg, vehicle 1100±161%
Description: Evaluation of Lung Function in Anaesthetized Guinea-Pigs
Male Dunkin-Hartley guinea pigs (300-600 g) were weighed and dosed with vehicle (0.05M phosphate, 0.1% Tween 80, 0.6% saline, pH 6) or compound via the intratracheal route under recoverable gaseous anaesthesia (5% halothane in oxygen). Animals were dosed with compound or vehicle two hours prior to the administration of histamine or methacholine.
Guinea pigs were anaesthetized with pentobarbitone (1 mL/kg of 60 mg/mL solution i.p.) approximately 30 minutes prior to the first bronchoconstrictor administration. The trachea was cannulated and the animal ventilated using a constant volume respiratory pump (Harvard Rodent Ventilator model 683) at a rate of 60 breath/min and a tidal volume of 5 ml/kg. A jugular vein was cannulated for the administration of histamine, methacholine or maintenance anaesthetic (0.1 mL of pentobarbitone solution, 60 mg/mL, as required).
The animals were transferred to a Flexivent System (SCIREQ, Montreal, Canada) in order to measure airway resistance. The animals were ventilated (quasi-sinusoidal ventilation pattern) at 60 breaths/min at a tidal volume of 5 mL/kg. A positive end expiratory pressure of 2-3 cmH2O was applied. Respiratory resistance was measured using the Flexivent “snapshot” facility (1 second duration, 1 Hz frequency). Once stable baseline resistance value had been obtained the animals were given histamine or methacholine in ascending doses (0.5, 1, 2, 3 and 5 μg/kg, i.v.) at approximately 4-minute intervals via the jugular catheter. After each administration of bronchoconstrictor the peak resistance value was recorded. Guinea pigs were euthanized with approximately 1.0 mL pentobarbitone sodium (Euthatal) intravenously after the completion of the lung function measurements. Percentage bronchoprotection produced by a compound was calculated at each dose of brochoconstrictor as follows:
Where % change Rveh is the mean of the maximum percentage change in airway resistance in the vehicle treated group. The results reported were measured after 5 μg/kg histamine or methacholine and were expressed as percentage bronchoprotection (mean ±s.e.mean).

[2] = biological target: T1, recombinant human α1D receptor (Homo sapiens, UniProt P25100); test: Adrenergic α1D [3H]-prazosin binding, HEK293 membranes; details: inhibition of [3H]-prazosin binding; read-out: α1 bind pIC50 (converted)
T1 construct: expressed in transfected cells; host or cells: HEK293 cells (membranes)
T1 sequence (P25100 1-572): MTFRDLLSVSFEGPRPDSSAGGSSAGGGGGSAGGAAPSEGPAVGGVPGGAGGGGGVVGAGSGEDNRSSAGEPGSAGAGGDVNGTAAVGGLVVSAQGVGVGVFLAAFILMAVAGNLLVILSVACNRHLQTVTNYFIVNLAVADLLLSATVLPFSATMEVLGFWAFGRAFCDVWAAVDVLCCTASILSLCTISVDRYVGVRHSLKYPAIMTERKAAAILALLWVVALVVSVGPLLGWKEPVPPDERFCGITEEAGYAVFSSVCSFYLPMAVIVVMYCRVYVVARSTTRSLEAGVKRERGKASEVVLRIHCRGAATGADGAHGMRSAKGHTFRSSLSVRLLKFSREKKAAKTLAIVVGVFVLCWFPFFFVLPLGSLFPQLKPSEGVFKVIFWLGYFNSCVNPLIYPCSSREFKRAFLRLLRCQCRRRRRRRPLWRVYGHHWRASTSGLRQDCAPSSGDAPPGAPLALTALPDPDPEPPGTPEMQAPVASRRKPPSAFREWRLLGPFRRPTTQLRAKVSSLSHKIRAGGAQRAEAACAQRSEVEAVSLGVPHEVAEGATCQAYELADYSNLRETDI
Description: Membranes were prepared from human embryonic kidney 293 (HEK293) cells expressing recombinant human α1D receptor. These were diluted in Assay Buffer (50 mM HEPES, 1 mM EDTA, 0.1% gelatin, pH 7.4) to provide a final concentration of membranes that gave a clear window between maximum and minimum specific binding.
Assays were performed in U-bottomed 96-well polypropylene plates. 10 μL [^3H]-prazosin (0.3 nM final concentration) and 10 μL of Compound A (10× final concentration) were added to each test well. For each assay plate 8 replicates were obtained for [^3H]-prazosin binding in the presence of 10 μL vehicle (10% (v/v) DMSO in Assay Buffer; defining maximum binding) or 10 μL BMY7378 (10 μM final concentration; defining non-specific binding (NSB)). Membranes were then added to achieve a final volume of 100 μL. […] Five washes with 250 μL wash buffer (50 mM HEPES, 1 mM EDTA, pH 7.4) were performed at 4° C. to remove unbound radioactivity. […] The plates were sealed (TopSeal A) and filter-bound radioactivity was measured with a scintillation counter (TopCount, Packard BioScience) using a 3-minute counting protocol.
Total specific binding (B0) was determined by subtracting the mean NSB from the mean maximum binding. […]

CCN(CC)CCN(CCNCCc1ccc(O)c2[nH]c(=O)sc12)C(=O)CCOCCc1cccc2ccccc12 [Compound A, N-[2-(Diethylamino)ethyl]-N-(2-{[2-(4-hydroxy-2-oxo-2,3-dihydro-1,3-benzothiazol-7-yl)ethyl]amino}ethyl)-3-[2-(1-naphthyl)ethoxy]propanamide dihydrobromide]
inhibition of histamine-induced bronchoconstriction ([1]; compound A 1 μg/kg intratracheal 2 h before): 49%
increase in bronchoconstriction ([1]; compound A 1 μg/kg intratracheal): 544±60%
inhibition of histamine-induced bronchoconstriction ([1]; compound A 27 μg/kg intratracheal 2 h before): 87%
increase in bronchoconstriction ([1]; compound A 27 μg/kg intratracheal): 140±36%
IC50 [2]: 251 nM
